Results published in ChEMBL document CHEMBL1201862, “PubChem BioAssay data set” (2004).
The source made the active and inactive calls.

Experiments:
[1] = molecular target: Mitogen-activated protein kinase 9 (Homo sapiens, UniProt P45984); assay type: functional;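 also: value from a kinome panel profiling assay, MAPK9 panel entry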
[2] = molecular target: Mitogen-activated protein kinase 14 (Homo sapiens, UniProt Q16539); assay type: functional;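 also: part of a kinome-wide panel, MAPK14 entry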
[3] = molecular target: Tyrosine-protein kinase JAK3 (Homo sapiens, UniProt P52333); assay type: functional
[4] = molecular target: Platelet-derived growth factor receptor beta (Homo sapiens, UniProt P09619); assay type: functional;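 also: value comes from a kinome panel, with PDGFRB tested as one panel member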
[5] = molecular target: Calcium/calmodulin-dependent protein kinase type II subunit alpha (Homo sapiens, UniProt Q9UQM7); test: Navigating the Kinome. Panel member name: CAMK2A; assay type: functional
[6] = molecular target: Casein kinase I isoform alpha (Homo sapiens, UniProt P48729); assay type: functional
[7] = molecular target: Tyrosine-protein kinase JAK2 (Homo sapiens, UniProt O60674); assay type: functional;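 also: JAK2 tested as one member of a kinase panel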
[8] = molecular target: High affinity nerve growth factor receptor (Homo sapiens, UniProt P04629); assay type: functional;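 also: NTRK1 tested as one member of a kinome-wide profiling panel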
[9] = molecular target: Activin receptor type-1 (Homo sapiens, UniProt Q04771); test: Navigating the Kinome. Panel member name: ACVR1; assay type: functional
[10] = molecular target: T1, Sentrin-specific protease 6 (Homo sapiens, UniProt Q9GZR1); test: SAR Analysis of small molecule inhibitors of Sentrin-specific protease 6 (SENP6) using a Luminescent assay. [Related pubchem assays (depositor defined):AID2582, AID2599]; assay type: functional
T1 sequence (Q9GZR1 whole entry): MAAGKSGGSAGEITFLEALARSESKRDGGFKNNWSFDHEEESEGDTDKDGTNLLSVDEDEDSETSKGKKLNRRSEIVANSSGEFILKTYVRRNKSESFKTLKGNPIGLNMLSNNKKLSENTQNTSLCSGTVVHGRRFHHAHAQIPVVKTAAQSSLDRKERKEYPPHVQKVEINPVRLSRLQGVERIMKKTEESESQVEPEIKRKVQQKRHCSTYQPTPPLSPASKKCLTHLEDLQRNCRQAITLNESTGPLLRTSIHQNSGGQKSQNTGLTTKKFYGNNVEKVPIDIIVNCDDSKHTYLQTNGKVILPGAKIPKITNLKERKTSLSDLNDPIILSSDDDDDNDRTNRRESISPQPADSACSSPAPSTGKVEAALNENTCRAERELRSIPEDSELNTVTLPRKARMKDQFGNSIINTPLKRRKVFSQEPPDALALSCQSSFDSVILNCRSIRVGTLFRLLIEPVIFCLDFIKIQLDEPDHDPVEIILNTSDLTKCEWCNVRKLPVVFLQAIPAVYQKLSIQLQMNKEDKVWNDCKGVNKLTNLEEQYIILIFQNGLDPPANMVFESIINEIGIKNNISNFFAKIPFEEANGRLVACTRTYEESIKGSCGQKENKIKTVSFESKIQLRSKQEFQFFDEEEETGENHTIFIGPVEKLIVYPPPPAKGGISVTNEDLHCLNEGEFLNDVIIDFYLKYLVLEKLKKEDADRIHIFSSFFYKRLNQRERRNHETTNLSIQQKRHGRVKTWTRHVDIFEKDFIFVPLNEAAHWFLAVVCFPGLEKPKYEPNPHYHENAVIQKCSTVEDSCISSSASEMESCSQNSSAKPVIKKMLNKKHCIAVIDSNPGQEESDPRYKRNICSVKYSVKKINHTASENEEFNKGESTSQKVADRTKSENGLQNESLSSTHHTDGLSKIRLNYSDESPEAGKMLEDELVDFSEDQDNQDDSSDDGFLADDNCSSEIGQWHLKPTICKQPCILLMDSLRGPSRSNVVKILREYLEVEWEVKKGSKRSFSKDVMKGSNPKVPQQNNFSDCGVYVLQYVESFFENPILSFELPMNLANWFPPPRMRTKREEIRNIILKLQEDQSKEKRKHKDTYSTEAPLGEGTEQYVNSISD

[11] = molecular target: T2, Histone-lysine N-methyltransferase NSD2 (Homo sapiens, UniProt O96028); assay type: biochemical
T2 sequence (O96028 whole entry): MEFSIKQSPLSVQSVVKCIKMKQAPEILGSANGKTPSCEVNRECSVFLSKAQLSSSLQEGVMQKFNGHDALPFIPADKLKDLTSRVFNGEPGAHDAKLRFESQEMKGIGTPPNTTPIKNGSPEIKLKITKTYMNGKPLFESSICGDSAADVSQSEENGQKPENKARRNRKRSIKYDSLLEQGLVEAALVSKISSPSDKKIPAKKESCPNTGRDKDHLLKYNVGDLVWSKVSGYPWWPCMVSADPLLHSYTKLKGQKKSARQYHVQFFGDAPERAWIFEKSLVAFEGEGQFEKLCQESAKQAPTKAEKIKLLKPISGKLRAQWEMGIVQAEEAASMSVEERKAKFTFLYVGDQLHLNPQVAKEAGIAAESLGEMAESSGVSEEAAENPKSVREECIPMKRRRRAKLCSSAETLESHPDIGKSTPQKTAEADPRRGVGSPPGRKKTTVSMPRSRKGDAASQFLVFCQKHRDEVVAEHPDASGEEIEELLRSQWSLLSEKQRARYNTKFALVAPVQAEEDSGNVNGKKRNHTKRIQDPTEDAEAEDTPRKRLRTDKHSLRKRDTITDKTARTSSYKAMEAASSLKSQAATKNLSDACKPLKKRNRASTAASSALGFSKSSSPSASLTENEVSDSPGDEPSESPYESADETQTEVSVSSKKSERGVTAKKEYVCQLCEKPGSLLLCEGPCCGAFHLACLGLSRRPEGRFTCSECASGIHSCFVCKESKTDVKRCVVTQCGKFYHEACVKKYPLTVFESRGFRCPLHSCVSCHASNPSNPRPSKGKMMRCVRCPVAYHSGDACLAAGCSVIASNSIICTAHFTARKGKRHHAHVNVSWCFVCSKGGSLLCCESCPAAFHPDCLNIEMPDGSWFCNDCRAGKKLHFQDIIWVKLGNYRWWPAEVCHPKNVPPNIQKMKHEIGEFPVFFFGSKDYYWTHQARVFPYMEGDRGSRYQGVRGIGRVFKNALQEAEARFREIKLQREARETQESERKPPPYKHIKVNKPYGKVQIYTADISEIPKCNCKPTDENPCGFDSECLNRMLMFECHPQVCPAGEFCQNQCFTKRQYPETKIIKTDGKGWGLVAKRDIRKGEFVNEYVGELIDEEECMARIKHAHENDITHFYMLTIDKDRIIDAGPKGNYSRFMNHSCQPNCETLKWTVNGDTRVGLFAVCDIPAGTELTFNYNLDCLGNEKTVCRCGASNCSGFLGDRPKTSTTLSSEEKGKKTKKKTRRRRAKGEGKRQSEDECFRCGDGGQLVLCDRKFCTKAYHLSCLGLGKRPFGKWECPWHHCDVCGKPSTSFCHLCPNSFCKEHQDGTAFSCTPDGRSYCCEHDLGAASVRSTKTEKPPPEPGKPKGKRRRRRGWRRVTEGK

Platelet-derived growth factor receptor beta, sequence (P09619 whole entry): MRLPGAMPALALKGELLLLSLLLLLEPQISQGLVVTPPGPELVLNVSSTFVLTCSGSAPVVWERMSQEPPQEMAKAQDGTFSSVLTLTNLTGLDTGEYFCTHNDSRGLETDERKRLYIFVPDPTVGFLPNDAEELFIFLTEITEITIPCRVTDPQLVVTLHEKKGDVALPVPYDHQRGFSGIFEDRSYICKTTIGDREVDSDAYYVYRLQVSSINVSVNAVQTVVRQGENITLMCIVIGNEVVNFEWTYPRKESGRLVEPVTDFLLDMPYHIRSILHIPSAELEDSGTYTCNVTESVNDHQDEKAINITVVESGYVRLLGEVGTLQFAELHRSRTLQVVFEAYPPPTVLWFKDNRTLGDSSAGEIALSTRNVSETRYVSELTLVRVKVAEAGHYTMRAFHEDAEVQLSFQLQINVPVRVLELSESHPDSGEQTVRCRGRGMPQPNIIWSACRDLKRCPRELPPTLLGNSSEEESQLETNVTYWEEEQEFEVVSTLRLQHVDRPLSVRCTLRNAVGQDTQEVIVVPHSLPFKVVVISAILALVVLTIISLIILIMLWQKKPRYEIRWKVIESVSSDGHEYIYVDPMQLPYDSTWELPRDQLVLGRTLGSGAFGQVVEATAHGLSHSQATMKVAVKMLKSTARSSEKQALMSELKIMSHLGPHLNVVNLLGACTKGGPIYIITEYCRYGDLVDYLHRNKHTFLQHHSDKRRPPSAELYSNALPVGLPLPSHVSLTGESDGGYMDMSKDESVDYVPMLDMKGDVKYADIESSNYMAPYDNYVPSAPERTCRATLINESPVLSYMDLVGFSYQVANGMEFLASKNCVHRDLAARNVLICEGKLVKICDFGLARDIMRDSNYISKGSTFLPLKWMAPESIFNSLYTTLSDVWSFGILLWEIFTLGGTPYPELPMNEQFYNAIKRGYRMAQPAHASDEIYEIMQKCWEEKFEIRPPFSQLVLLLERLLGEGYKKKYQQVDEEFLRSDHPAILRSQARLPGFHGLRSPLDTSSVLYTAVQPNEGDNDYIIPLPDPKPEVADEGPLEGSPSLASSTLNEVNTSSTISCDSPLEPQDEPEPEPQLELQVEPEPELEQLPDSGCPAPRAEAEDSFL
Tyrosine-protein kinase JAK3, sequence (P52333 whole entry): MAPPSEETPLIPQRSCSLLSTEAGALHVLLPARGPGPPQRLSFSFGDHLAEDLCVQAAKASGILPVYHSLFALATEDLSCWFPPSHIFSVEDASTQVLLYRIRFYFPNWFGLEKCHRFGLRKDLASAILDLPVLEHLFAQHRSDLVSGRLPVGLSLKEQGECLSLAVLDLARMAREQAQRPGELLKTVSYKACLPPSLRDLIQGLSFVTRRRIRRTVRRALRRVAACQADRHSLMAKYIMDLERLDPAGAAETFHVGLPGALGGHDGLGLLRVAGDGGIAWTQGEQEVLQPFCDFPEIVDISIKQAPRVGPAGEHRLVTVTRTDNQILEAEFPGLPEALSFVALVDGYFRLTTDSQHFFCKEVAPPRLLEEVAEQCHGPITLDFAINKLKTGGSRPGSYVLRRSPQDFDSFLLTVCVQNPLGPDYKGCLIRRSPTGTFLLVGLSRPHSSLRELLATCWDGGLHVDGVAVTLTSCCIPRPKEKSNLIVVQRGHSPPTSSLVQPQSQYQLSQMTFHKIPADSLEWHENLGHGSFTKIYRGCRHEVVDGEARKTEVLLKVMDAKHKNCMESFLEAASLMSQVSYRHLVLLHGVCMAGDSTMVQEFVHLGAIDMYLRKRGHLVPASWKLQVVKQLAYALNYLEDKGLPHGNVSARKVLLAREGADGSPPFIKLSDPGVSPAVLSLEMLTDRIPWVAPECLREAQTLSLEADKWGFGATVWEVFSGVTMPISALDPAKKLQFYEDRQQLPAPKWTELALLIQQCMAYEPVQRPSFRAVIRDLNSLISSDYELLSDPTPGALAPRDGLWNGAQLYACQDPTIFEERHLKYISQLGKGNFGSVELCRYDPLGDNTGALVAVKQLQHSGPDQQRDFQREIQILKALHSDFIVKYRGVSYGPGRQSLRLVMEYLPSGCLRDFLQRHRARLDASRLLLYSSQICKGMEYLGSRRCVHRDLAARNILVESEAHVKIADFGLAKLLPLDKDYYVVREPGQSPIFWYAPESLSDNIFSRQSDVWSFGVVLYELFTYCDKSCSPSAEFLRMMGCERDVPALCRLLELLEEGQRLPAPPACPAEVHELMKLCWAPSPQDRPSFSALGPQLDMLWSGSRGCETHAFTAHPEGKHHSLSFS
Mitogen-activated protein kinase 14, sequence (Q16539 whole entry): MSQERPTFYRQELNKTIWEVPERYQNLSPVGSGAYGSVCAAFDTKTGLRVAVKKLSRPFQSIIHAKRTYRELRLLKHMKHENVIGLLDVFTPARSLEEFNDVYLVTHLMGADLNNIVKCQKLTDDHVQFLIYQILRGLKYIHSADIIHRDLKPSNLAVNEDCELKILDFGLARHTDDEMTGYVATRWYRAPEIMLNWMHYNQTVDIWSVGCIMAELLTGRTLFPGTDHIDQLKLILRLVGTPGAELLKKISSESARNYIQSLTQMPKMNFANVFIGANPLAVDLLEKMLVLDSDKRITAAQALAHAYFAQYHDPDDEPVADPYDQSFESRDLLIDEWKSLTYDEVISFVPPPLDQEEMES
High affinity nerve growth factor receptor, sequence (P04629 whole entry): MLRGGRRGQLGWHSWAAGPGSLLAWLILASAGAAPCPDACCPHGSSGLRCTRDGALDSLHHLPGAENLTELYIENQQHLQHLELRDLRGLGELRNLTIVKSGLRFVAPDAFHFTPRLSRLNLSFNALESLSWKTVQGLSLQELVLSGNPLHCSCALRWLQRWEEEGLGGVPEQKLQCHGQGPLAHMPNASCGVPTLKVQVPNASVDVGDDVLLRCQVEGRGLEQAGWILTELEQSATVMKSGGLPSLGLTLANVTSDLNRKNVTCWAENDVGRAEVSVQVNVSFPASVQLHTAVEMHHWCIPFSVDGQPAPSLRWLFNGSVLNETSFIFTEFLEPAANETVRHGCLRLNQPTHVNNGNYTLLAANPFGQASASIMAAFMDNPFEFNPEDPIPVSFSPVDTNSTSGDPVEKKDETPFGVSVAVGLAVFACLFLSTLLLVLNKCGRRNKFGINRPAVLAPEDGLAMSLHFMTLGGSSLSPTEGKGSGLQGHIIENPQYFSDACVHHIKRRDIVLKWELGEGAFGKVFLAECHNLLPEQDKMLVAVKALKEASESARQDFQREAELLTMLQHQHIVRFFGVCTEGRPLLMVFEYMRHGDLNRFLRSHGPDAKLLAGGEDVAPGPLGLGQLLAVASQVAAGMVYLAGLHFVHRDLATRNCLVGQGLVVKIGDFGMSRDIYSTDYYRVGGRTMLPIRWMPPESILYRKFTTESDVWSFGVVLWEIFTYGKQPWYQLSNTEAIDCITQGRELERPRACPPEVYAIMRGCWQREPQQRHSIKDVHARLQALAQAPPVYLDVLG
Tyrosine-protein kinase JAK2, sequence (O60674 whole entry): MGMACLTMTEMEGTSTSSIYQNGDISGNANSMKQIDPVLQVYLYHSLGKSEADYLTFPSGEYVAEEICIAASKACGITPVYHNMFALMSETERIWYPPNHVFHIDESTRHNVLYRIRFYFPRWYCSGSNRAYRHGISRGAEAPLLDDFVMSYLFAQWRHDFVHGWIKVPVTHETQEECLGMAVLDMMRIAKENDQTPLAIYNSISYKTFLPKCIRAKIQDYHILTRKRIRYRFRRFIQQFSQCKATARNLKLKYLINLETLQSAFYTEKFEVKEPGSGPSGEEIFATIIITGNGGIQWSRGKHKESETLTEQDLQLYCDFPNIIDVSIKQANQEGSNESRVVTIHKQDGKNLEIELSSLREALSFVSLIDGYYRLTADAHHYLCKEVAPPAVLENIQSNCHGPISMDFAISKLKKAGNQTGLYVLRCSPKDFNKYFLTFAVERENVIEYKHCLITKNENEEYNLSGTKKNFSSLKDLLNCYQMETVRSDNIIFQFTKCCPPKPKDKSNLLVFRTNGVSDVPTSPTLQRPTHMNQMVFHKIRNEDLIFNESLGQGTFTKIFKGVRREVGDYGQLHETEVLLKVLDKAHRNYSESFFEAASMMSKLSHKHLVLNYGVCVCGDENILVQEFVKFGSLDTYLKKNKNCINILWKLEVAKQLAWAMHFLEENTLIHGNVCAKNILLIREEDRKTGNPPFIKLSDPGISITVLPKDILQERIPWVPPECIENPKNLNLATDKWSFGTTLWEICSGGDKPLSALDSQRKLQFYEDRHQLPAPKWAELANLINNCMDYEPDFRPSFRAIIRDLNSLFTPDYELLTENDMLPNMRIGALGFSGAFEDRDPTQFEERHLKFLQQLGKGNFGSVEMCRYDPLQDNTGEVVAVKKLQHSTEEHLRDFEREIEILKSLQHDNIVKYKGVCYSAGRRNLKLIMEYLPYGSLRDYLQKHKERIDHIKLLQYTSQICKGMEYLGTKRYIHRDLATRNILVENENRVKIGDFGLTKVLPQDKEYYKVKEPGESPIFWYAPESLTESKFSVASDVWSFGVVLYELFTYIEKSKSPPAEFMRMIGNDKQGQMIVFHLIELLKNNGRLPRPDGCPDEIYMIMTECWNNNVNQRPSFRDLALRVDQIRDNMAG
Mitogen-activated protein kinase 9, sequence (P45984 whole entry): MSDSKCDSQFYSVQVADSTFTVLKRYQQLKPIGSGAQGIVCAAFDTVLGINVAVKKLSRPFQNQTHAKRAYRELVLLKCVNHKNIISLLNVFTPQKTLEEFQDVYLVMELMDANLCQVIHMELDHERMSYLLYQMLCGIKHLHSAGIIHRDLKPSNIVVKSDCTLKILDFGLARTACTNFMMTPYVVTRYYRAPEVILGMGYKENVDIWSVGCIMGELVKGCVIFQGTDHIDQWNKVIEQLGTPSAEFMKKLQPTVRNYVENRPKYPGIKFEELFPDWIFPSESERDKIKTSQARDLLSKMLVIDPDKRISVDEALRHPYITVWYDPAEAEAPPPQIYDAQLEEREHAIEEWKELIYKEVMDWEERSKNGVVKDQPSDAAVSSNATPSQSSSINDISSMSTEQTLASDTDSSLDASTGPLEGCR

Row | SMILES | Ki [1] | Ki [2] | Ki [3] | Ki [4] | Ki [5] | Ki [6] | Ki [7] | Ki [8] | Ki [9] | IC50 [10] | AC50 [11]
1 | NC(COc1cncc(-c2ccc3c(c2)C(=Cc2ccc[nH]2)C(=O)N3)c1)Cc1ccccc1 (configuration not stated) | 1.26 µM (active) | 631 nM (active) | 20 nM (active) | 0.00316 µM (active) | 63.1 nM (active) | 2 µM (active) | 63.1 nM (active) | 63.1 nM (active) | 794 nM (active) | – | –
2 | COc1cc2cc(NC(C)=O)cc(NCc3ccccc3)c2cc1OC | – | – | – | – | – | – | – | – | – | 40.4 µM (active) | –
3 | CCN(CC)CCOc1ccc2c(c1)C(=NNC(=O)c1ccccn1)c1cc(OCCN(CC)CC)ccc1-2 | – | – | – | – | – | – | – | – | – | – | 10.3 µM (active)

The next lines start with results.

Row | Ki [1] | Ki [2] | Ki [3] | Ki [4] | Ki [5] | Ki [6] | Ki [7] | Ki [8] | Ki [9] | IC50 [10] | SMILES | AC50 [11]
4 | – | – | – | 50.1 µM (active) | – | – | – | – | – | – | O=C1Cc2cc(-c3ccccc3)cnc2N1 | –
5 | > 3.98 µM (inactive) | 2510 nM (active) | 20 nM (active) | – | 2510 nM (active) | > 3.98 µM (inactive) | 5.01 nM (active) | 2000 nM (active) | 3160 nM (active) | – | O=C1Nc2cc(-c3ccc(O)cc3)ccc2C1=Cc1ccc[nH]1 | –
6 | – | – | – | – | – | – | – | – | – | 11.3 µM (active) | CN(C)c1cc(N/N=C\c2ccccc2)nc(N(C)C)n1 | 4.93 µM (active)
